According to ChEMBL document CHEMBL5241112, “Insights into the recent progress in the medicinal chemistry of pyranopyrimidine analogs” (RSC Med Chem, 2022):
≈ marks a conversion by molar mass, not a printed value.

What was measured:
[1] = system: Bacillus cereus; assay: Antibacterial activity against Bacillus cereus assessed as diameter of inhibition zone by disc diffusion method; assay type: functional
[2] = system: Aspergillus ochraceus; assay: Antifungal activity against Aspergillus ochraceus assessed as diameter of inhibition zone by disc diffusion method; assay type: functional
[3] = system: Penicillium chrysogenum; assay: Antifungal activity against Penicillium chrysogenum assessed as diameter of inhibition zone by disc diffusion method; assay type: functional
[4] = system: Serratia marcescens; assay: Antibacterial activity against Serratia marcescens assessed as diameter of inhibition zone by disc diffusion method; assay type: functional
[5] = system: Mycobacterium tuberculosis; assay: Antitubercular activity against Mycobacterium tuberculosis H37Rv assessed as bacterial growth inhibition at 100 ug/ml; assay type: functional
[6] = system: Mycobacterium tuberculosis; assay: Antimicrobial activity against Mycobacterium tuberculosis H37Rv assessed reduction bacterial growth at 100 ug/ml incubated for 24 hrs by Lowensteine-Jensen method; assay type: functional; parameters: scale not given: the % may be the effect or the level left; conditions: dose 100 µg/ml
[7] = system: Plasmodium falciparum; assay: microbe, parasite or virus in culture
[8] = system: Mycobacterium tuberculosis; assay: Antitubercular activity against Mycobacterium tuberculosis H37Rv assessed as bacterial growth inhibition at 250 ug/ml; assay type: functional
[9] = system: Escherichia coli; assay: Antibacterial activity against Escherichia coli MTCC 443 assessed as bacterial growth inhibition by broth microdilution method; assay type: functional
[10] = system: HT-29; assay: Antiproliferative activity against human HT-29 cells assessed as reduction in cell viability by MTT assay; assay type: functional, cell-based
[11] = system: MDA-MB-231; assay: cells; conditions: Homo sapiens
[12] = system: PANC-1; assay: Antiproliferative activity against human PANC-1 cells assessed as reduction in cell viability by MTT assay; assay type: functional, cell-based
[13] = system: Escherichia coli; assay: Antibacterial activity against Escherichia coli MTCC 723 assessed as diameter of inhibition zone at 0.1 mg/ml incubated for 24 hrs by agar well diffusion method; assay type: functional; conditions: read-out: DIZ
[14] = system: Klebsiella pneumoniae; assay: Antibacterial activity against Klebsiella pneumoniae MTCC 109 assessed as diameter of inhibition zone at 0.1 mg/ml incubated for 24 hrs by agar well diffusion method; assay type: functional; conditions: read-out: DIZ
[15] = system: Bacillus subtilis; assay: Antibacterial activity against Bacillus subtilis assessed as diameter of inhibition zone at 100 ug/ml by disc diffusion method; assay type: functional; conditions: read-out: DIZ
[16] = system: Pseudomonas aeruginosa; assay: Antibacterial activity against Pseudomonas aeruginosa MTCC 741 assessed as diameter of inhibition zone at 0.1 mg/ml incubated for 24 hrs by agar well diffusion method; assay type: functional; conditions: read-out: DIZ
[17] = system: Klebsiella pneumoniae; assay: Antibacterial activity against Klebsiella pneumoniae assessed as diameter of inhibition zone at 100 ug/ml by disc diffusion method; assay type: functional; conditions: read-out: DIZ
[18] = system: Klebsiella pneumoniae; assay: Antibacterial activity against Klebsiella pneumoniae MGH 78578 assessed as diameter of inhibition zone at 50 mg/ml incubated for 24 hrs by paper disk diffusion method; assay type: functional; conditions: read-out: DIZ
[19] = system: Aspergillus fumigatus; assay: Antifungal activity against Aspergillus fumigatus ATCC204305 assessed as inhibition of […] growth incubated for 24 hrs by disk diffusion method; assay type: functional
[20] = system: Escherichia coli; assay: Antibacterial activity against Escherichia coli ATCC 25922 assessed as diameter of inhibition zone at 50 mg/ml incubated for 24 hrs by paper disk diffusion method; assay type: functional; conditions: read-out: DIZ
[21] = system: Staphylococcus aureus; assay: Antibacterial activity against Staphylococcus aureus ATCC6538-P assessed as inhibition of bacterial growth incubated for 24 hrs by disk diffusion method; assay type: functional
[22] = system: Escherichia coli; assay: Antibacterial activity against Escherichia coli assessed as diameter of inhibition zone at 100 ug/ml by disc diffusion method; assay type: functional; conditions: read-out: DIZ
[23] = system: Streptococcus pneumoniae; assay: Antibacterial activity against Streptococcus pneumoniae ATCC BAA-255/R6 assessed as inhibition of bacterial growth incubated for 24 hrs by disk diffusion method; assay type: functional
[24] = system: Staphylococcus aureus; assay: Antibacterial activity against Staphylococcus aureus MTCC 87 assessed as diameter of inhibition zone at 0.1 mg/ml incubated for 24 hrs by agar well diffusion method; assay type: functional; conditions: read-out: DIZ
[25] = system: Staphylococcus aureus; assay: Antibacterial activity against Staphylococcus aureus assessed as diameter of inhibition zone at 100 ug/ml by disc diffusion method; assay type: functional; conditions: read-out: DIZ
[26] = Cytotoxicity against human HDF cells assessed as reduction in cell viability by MTT assay; assay type: toxicity, cell-based; conditions: HDF cells (NHDF cell line)
[27] = system: Staphylococcus aureus; assay: Antibacterial activity against Staphylococcus aureus assessed as diameter of inhibition zone by disc diffusion method; assay type: functional
[28] = target: Alpha-glucosidase (Mus musculus); assay: Inhibition of mouse alpha-glucosidase assessed as decrease in release of p-nitrophenol using pNPG as substrate preincubated for 10 mins followed by substrate addition and measured after 30 mins by spectroscopic analysis
[29] = target: Alpha-glucosidase (Saccharomyces cerevisiae S288c, UniProt P53341+P38158+P07265); assay: Inhibition of Saccharomyces cerevisiae alpha-glucosidase assessed as decrease in release of p-nitrophenol using pNPG as substrate incubated for 10 mins by spectroscopic analysis; assay type: protein assay
[30] = Antioxidant activity assessed as hydroxyl radical scavenging activity incubated for 5 mins by spectrophotometric analysis; assay type: functional; parameters: concentration or dose not given beside the values
[31] = species on record: Capra hircus; assay: Inhibition of goat lens AR assessed as gibbs binding free energy
[32] = species on record: Capra hircus; assay: Inhibition of goat lens AR at 100 uM incubated for 10 mins in presence of NADPH by spectroscopic analysis
[33] = Antioxidant activity assessed as DPPH radical scavenging activity incubated for 20 mins by spectrophotometric analysis; assay type: functional; parameters: concentration or dose not given beside the values
[34] = system: Escherichia coli; assay: Antibacterial activity against Escherichia coli MTCC 739 assessed as bacterial growth inhibition; assay type: functional
[35] = system: Staphylococcus aureus; assay: Antibacterial activity against Staphylococcus aureus MTCC 96 assessed as minimum bactericidal concentration; assay type: functional
[36] = system: Bacillus subtilis; assay: Antibacterial activity against Bacillus subtilis MTCC 121 assessed as bacterial growth inhibition; assay type: functional
[37] = system: Raoultella planticola; assay: Antibacterial activity against Raoultella planticola MTCC 530 assessed as bacterial growth inhibition; assay type: functional; conditions: Klebsiella planticola
[38] = system: Pseudomonas aeruginosa; assay: Antibacterial activity against Pseudomonas aeruginosa MTCC 2453 assessed as bacterial growth inhibition; assay type: functional
[39] = system: Micrococcus luteus; assay: Antibacterial activity against Micrococcus luteus MTCC 2470 assessed as bacterial growth inhibition; assay type: functional
[40] = system: Staphylococcus aureus; assay: Antibacterial activity against Staphylococcus aureus MLS-16 MTCC 2940 assessed as minimum bactericidal concentration; assay type: functional
[41] = system: Staphylococcus aureus; assay: Antibacterial activity against Staphylococcus aureus MLS-16 MTCC 2940 assessed as bacterial growth inhibition; assay type: functional
[42] = system: Bacillus subtilis; assay: Antibacterial activity against Bacillus subtilis MTCC 121 assessed as minimum bactericidal concentration; assay type: functional

CCOC(=O)c1nc2c3c(ncn2n1)Oc1ccc2cc(Br)ccc2c1C3
diameter of the inhibition zone (DIZ) [1]: 23 mm
diameter of the inhibition zone (DIZ) [2]: 17 mm
diameter of the inhibition zone (DIZ) [3]: 22 mm
diameter of the inhibition zone (DIZ) [4]: 24 mm

CCOC(=O)C1=C(N)Oc2[nH]c(=O)[nH]c(=O)c2C1c1c(C)nn(-c2ccccc2)c1-n1ccnc1 (stereo not given)
inhibition at 100 µg/mL [5]: 30%
Activity [6]: 92%
IC50 [7]: 0.97 µg/mL (≈ 2.04 µM)
inhibition at 250 µg/mL [8]: 37%
MIC [9]: 100 µg/mL (≈ 210 µM)

COc1cc([C@@H]2c3cc4c(cc3[C@@H](O[C@@H]3O[C@@H]5CO[C@@H](C)O[C@H]5[C@H](O)[C@H]3O)[C@H]3COC(=O)[C@H]23)OCO4)cc(OC)c1O [ETOPOSIDE]
IC50 [10]: 25.6 µM
IC50 [11]: 30.6 µM
IC50 [12]: 24.4 µM

CC1(C)S[C@@H]2[C@H](NC(=O)[C@H](N)c3ccc(O)cc3)C(=O)N2[C@H]1C(=O)O [AMOXICILLIN]
zone of inhibition at 100 µg/mL [13]: 14.9 mm
zone of inhibition at 100 µg/mL [14]: 13.6 mm
zone of inhibition at 100 µg/mL [15]: 15.5 mm
zone of inhibition at 100 µg/mL [16]: 15 mm
zone of inhibition at 100 µg/mL [17]: 18 mm
zone of inhibition at 50000 µg/mL [18]: 15 mm
MIC [19]: 15.6 µg/mL (≈ 42.7 µM)
zone of inhibition at 50000 µg/mL [20]: 24 mm
MIC [21]: 31.3 µg/mL (≈ 85.7 µM)
zone of inhibition at 100 µg/mL [22]: 19.5 mm
MIC [23]: 7.8 µg/mL (≈ 21.3 µM)
zone of inhibition at 100 µg/mL [24]: 13.8 mm
zone of inhibition at 100 µg/mL [25]: 17.5 mm

N#CC1=C(N)Oc2[nH]c(=O)[nH]c(=O)c2C12c1ccccc1-n1c2nc2ccccc2c1=O (stereo not given)
IC50 [26]: > 100 µM
IC50 [10]: 23.7 µM

N#CCc1nc2c3c(ncn2n1)Oc1ccc2cc(Br)ccc2c1C3
diameter of the inhibition zone (DIZ) [27]: 25 mm
diameter of the inhibition zone (DIZ) [2]: 17 mm
diameter of the inhibition zone (DIZ) [3]: 13 mm
diameter of the inhibition zone (DIZ) [4]: 23 mm

COc1cc(/C=C/C(=O)C2=C(/C=C/c3ccc(O)c(OC)c3)Oc3[nH]c(=O)[nH]c(=O)c3C2c2ccc([N+](=O)[O-])cc2)ccc1O (stereo not given)
IC50 [28]: 106.8 µM
IC50 [29]: 12.41 µM

Cc1nn(-c2ccccc2)c(Cl)c1C1c2[nH]c(=O)[nH]c(=O)c2Oc2c1c(=O)oc1ccccc21 (stereo not given)
Activity [30]: 54.3%
deltaG [31]: -10.4 kcal/mol
inhibition [32]: 60%
Activity [33]: 59.1%

Cc1ccc(C2c3c(Nc4ccc([N+](=O)[O-])cc4)ncnc3Oc3c2c(=O)oc2ccccc32)cc1 (stereo not given)
MIC [34]: 15.6 µg/mL (≈ 32.6 µM)
MBC [35]: 15.6 µg/mL (≈ 32.6 µM)
MIC [36]: 15.6 µg/mL (≈ 32.6 µM)
MIC [37]: 15.6 µg/mL (≈ 32.6 µM)
MIC [38]: 15.6 µg/mL (≈ 32.6 µM)
MIC [39]: 15.6 µg/mL (≈ 32.6 µM)
MBC [40]: 15.6 µg/mL (≈ 32.6 µM)
MIC [41]: 15.6 µg/mL (≈ 32.6 µM)
MBC [42]: 15.6 µg/mL (≈ 32.6 µM)

Cc1ccc(C2c3c(Nc4cccc([N+](=O)[O-])c4)ncnc3Oc3c2c(=O)oc2ccccc32)cc1 (stereo not given)
MIC [34]: 15.6 µg/mL (≈ 32.6 µM)
MBC [35]: 15.6 µg/mL (≈ 32.6 µM)
MIC [36]: 31.2 µg/mL (≈ 65.2 µM)
MIC [37]: 15.6 µg/mL (≈ 32.6 µM)
MIC [38]: 15.6 µg/mL (≈ 32.6 µM)
MIC [39]: 15.6 µg/mL (≈ 32.6 µM)
MBC [40]: 15.6 µg/mL (≈ 32.6 µM)
MIC [41]: 15.6 µg/mL (≈ 32.6 µM)
MBC [42]: 15.6 µg/mL (≈ 32.6 µM)
